Experimental data reported in PubChem BioAssay AID248 (DTP/NCI, 2004).
Several values for one entry are separate records, joined by “and”; a condition that tells them apart may be missing. Equal values may be shown once. Toxic doses and inconclusive results are not listed. Rule as the data show it: active = T/C of 150% or more; inactive = T/C below 125%.

Tested on: L1210 leukemia ip in BDF1 mice, survival T/C
Experiment: NCI In Vivo Anticancer Drug Screen. Data for tumor model L1210 Leukemia (intraperitoneal) in B6D2F1 (BDF1) mice
Conditions: endpoint: mean survival time, higher = longer survival
Procedure, shortened: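 Transplanted-tumor mice were given test agent; controls received vehicle only. Survival readings from the two groups were divided (treated over control).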

[1] = dose: 100.0 mg/kg/injection, schedule: Q04DX003 (ip), vehicle: Klucel (hydroxypropylcellulose) (HPC)
[2] = dose: 200.0 mg/kg/injection, schedule: Q04DX003 (ip), vehicle: Klucel (hydroxypropylcellulose) (HPC)
[3] = dose: 50.0 mg/kg/injection, schedule: Q01DX001 (ip), vehicle: carboxymethylcellulose (CMC)
[4] = dose: 100.0 mg/kg/injection, schedule: Q01DX001 (ip), vehicle: carboxymethylcellulose (CMC)
[5] = dose: 200.0 mg/kg/injection, schedule: Q01DX001 (ip), vehicle: carboxymethylcellulose (CMC)
[6] = dose: 400.0 mg/kg/injection, schedule: Q01DX001 (ip), vehicle: carboxymethylcellulose (CMC)
[7] = dose: 100.0 mg/kg/injection, schedule: Q04DX002 (ip), vehicle: saline
[8] = dose: 200.0 mg/kg/injection, schedule: Q04DX002 (ip), vehicle: saline
[9] = dose: 400.0 mg/kg/injection, schedule: Q04DX002 (ip), vehicle: saline
[10] = dose: 100.0 mg/kg/injection, schedule: Q01DX001 (ip), vehicle: saline
[11] = dose: 200.0 mg/kg/injection, schedule: Q01DX001 (ip), vehicle: saline
[12] = dose: 400.0 mg/kg/injection, schedule: Q01DX001 (ip), vehicle: saline
[13] = dose: 100.0 mg/kg/injection, schedule: Q04DX003 (ip), vehicle: saline
[14] = dose: 200.0 mg/kg/injection, schedule: Q04DX003 (ip), vehicle: saline
[15] = dose: 50.0 mg/kg/injection, schedule: Q01DX009 (ip), vehicle: Klucel (hydroxypropylcellulose) (HPC)
[16] = dose: 100.0 mg/kg/injection, schedule: Q01DX009 (ip), vehicle: Klucel (hydroxypropylcellulose) (HPC)
[17] = dose: 200.0 mg/kg/injection, schedule: Q01DX009 (ip), vehicle: Klucel (hydroxypropylcellulose) (HPC)
[18] = dose: 400.0 mg/kg/injection, schedule: Q04DX003 (ip), vehicle: Klucel (hydroxypropylcellulose) (HPC)
[19] = dose: 100.0 mg/kg/injection, schedule: Q01DX009 (ip), vehicle: saline with Tween-80

Measured: T/C

Nc1nnnn1N(Cc1ccccc1)Cc1ccccc1
inactive: [1] 96 % of control | [2] 117 % of control

O=C(O)/C(Cc1cccc(=O)n1Cc1ccccc1)=N\O
inactive: dose: 75.0 mg/kg/injection, schedule: Q01DX001 (ip), vehicle: Klucel (hydroxypropylcellulose) (HPC) 97 % of control | dose: 150.0 mg/kg/injection, schedule: Q01DX001 (ip), vehicle: Klucel (hydroxypropylcellulose) (HPC) 97 % of control | dose: 300.0 mg/kg/injection, schedule: Q01DX001 (ip), vehicle: Klucel (hydroxypropylcellulose) (HPC) 94 % of control

CC(=O)OC1C(C)OC(n2cnc3c(=S)nc[nH]c32)C1OC(C)=O (stereo unspecified)
inactive: [3] 103 % of control | [4] 101 % of control | [5] 108 % of control | [6] 106 % of control

CN(C)CCS(=O)(=O)c1ccc(Cl)cc1
inactive: [7] 102 % of control | [8] 109 % of control | [9] 98 % of control

Cc1n[nH]c(=S)n1NC=O
inactive: [10] 94 % of control | [11] 94 % of control | [12] 90 % of control

Cc1cc(C)c2nc(-c3ccc(F)cc3)cc(C(=O)O)c2c1
inactive: dose: 50.0 mg/kg/injection, schedule: Q04DX003 (ip), vehicle: saline 97 % of control | [10] 101 % of control | [13] 97 % of control | [11] 93 % of control | [14] 96 % of control

Nc1[nH][nH]c(=O)c1N=O
inactive: [15] 95 % of control | [16] 111 % of control | [7] 103 % of control | [17] 88 % of control | [8] 111 % of control | [9] 92 % of control

ClCCN(CCCl)c1ccc(C=Nc2ccc(/C=C\c3ccnc4ccccc34)cc2)cc1
inactive: dose: 100.0 mg/kg/injection, schedule: Q01DX001 (ip), vehicle: other 96 % of control | dose: 200.0 mg/kg/injection, schedule: Q01DX001 (ip), vehicle: other 94 % of control | dose: 400.0 mg/kg/injection, schedule: Q01DX001 (ip), vehicle: other 94 % of control

CC(=O)Nc1ccccc1F
inactive: [16] 105 % of control | [1] 101 % of control | [17] 105 % of control | [2] 102 % of control | dose: 400.0 mg/kg/injection, schedule: Q01DX009 (ip), vehicle: Klucel (hydroxypropylcellulose) (HPC) 103 % of control | [18] 95 % of control

CC(=O)CC(C)=NCC(C)N=C(C)CC(C)=O (stereo unspecified)
inactive: [19] 89 % of control | dose: 100.0 mg/kg/injection, schedule: Q04DX003 (ip), vehicle: saline with Tween-80 100 % of control | dose: 200.0 mg/kg/injection, schedule: Q01DX009 (ip), vehicle: saline with Tween-80 98 % of control | dose: 200.0 mg/kg/injection, schedule: Q04DX003 (ip), vehicle: saline with Tween-80 101 % of control | dose: 400.0 mg/kg/injection, schedule: Q04DX003 (ip), vehicle: saline with Tween-80 93 % of control

CCOC(=O)C(=Cc1csc2ccccc12)C(=O)OCC
inactive: [4] 92 % of control | [5] 94 % of control | [6] 94 % of control

O=[N+]([O-])c1sc2ccccc2c1O
inactive: dose: 12.5 mg/kg/injection, schedule: Q01DX009 (ip), vehicle: saline with Tween-80 99 % of control | dose: 25.0 mg/kg/injection, schedule: Q01DX009 (ip), vehicle: saline with Tween-80 99 % of control

CCN(CC)C(=O)c1ccccc1
inactive: [13] 103 % of control | [14] 110 % of control | dose: 400.0 mg/kg/injection, schedule: Q04DX003 (ip), vehicle: saline 105 % of control

CCOC(CC)OCC
inactive: [10] 97 % of control | [11] 103 % of control | [12] 94 % of control

O=C1c2ccccc2C(=O)N1CC(O)COc1ccc(Cl)cc1 (stereo unspecified)
inactive: [1] 92 % of control | [2] 92 % of control | [18] 91 % of control

O=C(O)/C=C/c1cccc(Cl)c1
inactive: dose: 100.0 mg/kg/injection, schedule: Q01DX009 (ip), vehicle: gum acacia 113 % of control | dose: 200.0 mg/kg/injection, schedule: Q01DX009 (ip), vehicle: gum acacia 104 % of control | dose: 400.0 mg/kg/injection, schedule: Q01DX009 (ip), vehicle: gum acacia 100 % of control

O=C1c2cccc3cc([N+](=O)[O-])cc(c23)C(=O)N1C(Cc1ccccc1)c1ccccc1 (stereo unspecified)
inactive: dose: 100.0 mg/kg/injection, schedule: Q04DX002 (ip), vehicle: saline with Tween-80 103 % of control | dose: 200.0 mg/kg/injection, schedule: Q04DX002 (ip), vehicle: saline with Tween-80 95 % of control | dose: 400.0 mg/kg/injection, schedule: Q04DX002 (ip), vehicle: saline with Tween-80 103 % of control

CN(C)CC1CCCCC1OC(=O)c1ccccc1 (stereo unspecified)
inactive: dose: 50.0 mg/kg/injection, schedule: Q01DX009 (ip), vehicle: saline with Tween-80 91 % of control | [19] 94 % of control

CCN(CC)CCNc1c(C)cc(CO)c(Cl)c1C
inactive: dose: 31.25 mg/kg/injection, schedule: Q01DX009 (ip), vehicle: saline 97 % of control | dose: 62.5 mg/kg/injection, schedule: Q01DX009 (ip), vehicle: saline 99 % of control | dose: 125.0 mg/kg/injection, schedule: Q01DX009 (ip), vehicle: saline 97 % of control | dose: 250.0 mg/kg/injection, schedule: Q01DX009 (ip), vehicle: saline 103 % of control

O=S(=O)(F)c1ccc(C[P+](c2ccccc2)(c2ccccc2)c2ccccc2)cc1Cl
inactive: dose: 12.5 mg/kg/injection, schedule: Q01DX001 (ip), vehicle: carboxymethylcellulose (CMC) 103 % of control | dose: 12.5 mg/kg/injection, schedule: Q01DX009 (ip), vehicle: carboxymethylcellulose (CMC) 113 % of control and 117 % of control | dose: 12.5 mg/kg/injection, schedule: Q04DX002 (ip), vehicle: carboxymethylcellulose (CMC) 97 % of control and 100 % of control | dose: 25.0 mg/kg/injection, schedule: Q01DX001 (ip), vehicle: carboxymethylcellulose (CMC) 99 % of control | dose: 25.0 mg/kg/injection, schedule: Q01DX009 (ip), vehicle: carboxymethylcellulose (CMC) 97 % of control and 98 % of control | dose: 25.0 mg/kg/injection, schedule: Q04DX002 (ip), vehicle: carboxymethylcellulose (CMC) 100 % of control and 103 % of control | dose: 25.0 mg/kg/injection, schedule: Q04DX003 (ip), vehicle: carboxymethylcellulose (CMC) 96 % of control and 102 % of control | [3] 99 % of control and 101 % of control and 107 % of control | dose: 50.0 mg/kg/injection, schedule: Q01DX009 (ip), vehicle: carboxymethylcellulose (CMC) 98 % of control and 103 % of control | dose: 50.0 mg/kg/injection, schedule: Q04DX002 (ip), vehicle: carboxymethylcellulose (CMC) 100 % of control and 110 % of control | dose: 50.0 mg/kg/injection, schedule: Q04DX003 (ip), vehicle: carboxymethylcellulose (CMC) 102 % of control and 105 % of control | dose: 100.0 mg/kg/injection, schedule: Q04DX002 (ip), vehicle: carboxymethylcellulose (CMC) 101 % of control and 91 % of control | dose: 100.0 mg/kg/injection, schedule: Q04DX003 (ip), vehicle: carboxymethylcellulose (CMC) 102 % of control and 104 % of control

CC(=O)O[C@H]1[C@H]2O[C@]23[C@@H]2CC[C@@H]4C[C@@H](O)CC[C@]4(C)[C@H]2CC[C@]3(C)[C@H]1c1ccc(=O)oc1
inactive: dose: 3.75 mg/kg/injection, schedule: Q01DX009 (ip), vehicle: Klucel (hydroxypropylcellulose) (HPC) 110 % of control | dose: 5.0 mg/kg/injection, schedule: Q01DX001 (ip), vehicle: other 103 % of control | dose: 7.5 mg/kg/injection, schedule: Q01DX009 (ip), vehicle: Klucel (hydroxypropylcellulose) (HPC) 98 % of control | dose: 10.0 mg/kg/injection, schedule: Q01DX001 (ip), vehicle: other 103 % of control | dose: 15.0 mg/kg/injection, schedule: Q04DX003 (ip), vehicle: Klucel (hydroxypropylcellulose) (HPC) 98 % of control | dose: 20.0 mg/kg/injection, schedule: Q01DX001 (ip), vehicle: other 97 % of control

O=C1C(C2(O)C(=O)Nc3ccccc32)CCCC1C1(O)C(=O)Nc2ccccc21 (stereo unspecified)
inactive: [15] 97 % of control | [16] 104 % of control | [17] 101 % of control

CCOC(=O)C(Cc1ccccc1)C1=NC(C)(C)CC(C)O1 (stereo unspecified)
inactive: dose: 10.0 mg/kg/injection, schedule: Q01DX009 (ip), vehicle: alcohol 100 % of control | dose: 200.0 mg/kg/injection, schedule: Q01DX009 (ip), vehicle: alcohol 104 % of control | dose: 400.0 mg/kg/injection, schedule: Q01DX009 (ip), vehicle: alcohol 102 % of control
